Measurements published in PMC9774897 (Antibiotics, 2022).
Values after ≈ are worked out from the molar mass of the structure shown. Like-named read-outs stand apart in the source and are kept apart here. Residues, ends and D or L forms follow the SMILES beside them.

Legend:
M. tuberculosis [1] = settings: Kinetic killing assay; ref [22]; cited from earlier work
Text: Table 6 The general characteristics and the previously reported MIC of each antimicrobial peptide used in this study. | column: MIC (µg/mL)

M. tuberculosis H37Rv [2] = assay: Checkerboard assay (REMA read-out); format: cell-based, Mycobacterium tuberculosis; settings: for MIC: Mycobacterium tuberculosis, H37RV, 168 h, checkerboard, agent alone; for MIC / MIC, Combined: REMA read-out, 7 days
M. tuberculosis H37Rv [3] = test system: M. tuberculosis H37Rv; parameters: method as in PMID 32750539, PMID 29900893; settings: previous reports; ref [30],[31]; cited from earlier work
M. tuberculosis H37Rv [4] = settings: 3 h, 100 µg/mL
M. tuberculosis [5] = settings: cited from earlier work

CC(C)C[C@H](NC(=O)[C@H](CC(C)C)NC(=O)[C@H](CCCCN)NC(=O)[C@H](CCCCN)NC(=O)[C@@H](NC(=O)[C@H](C)N)C(C)C)C(=O)N[C@@H](CCCNC(=N)N)C(=O)N[C@@H](Cc1c[nH]c2ccccc12)C(=O)N[C@@H](Cc1c[nH]c2ccccc12)C(=O)N[C@@H](CO)C(=O)N[C@@H](CCCNC(=N)N)C(=O)N[C@@H](Cc1c[nH]c2ccccc12)C(=O)N[C@@H](Cc1c[nH]c2ccccc12)C(=O)N[C@@H](CCCCN)C(=O)N[C@@H](CCCCN)C(=O)O [AK 15-6] (H-AVKKLLRWWSRWWKK-OH; N-terminus and C-terminus assumed)
MIC (M. tuberculosis [1]): 37.5 µg/mL (≈ 18.1 µM)

NNC(=O)c1ccncc1 [INH, isoniazid]
MIC (M. tuberculosis H37Rv [2]): 0.025 µg/mL
FIC (M. tuberculosis H37Rv [2]; combination INH + D-hLF 1-11): 0.48
MIC, Combined (M. tuberculosis H37Rv [2]; combination INH + D-hLF 1-11): 0.012 µg/mL
MIC (M. tuberculosis H37Rv [3]): 0.03 to 0.12 µg/mL

CC(C)C[C@H](NC(=O)[C@H](CCCNC(=N)N)NC(=O)CNC(=O)CNC(=O)[C@@H](N)CCCNC(=N)N)C(=O)N[C@H]1CSSC[C@@H](C(=O)N[C@H](C(=O)NCC(=O)N[C@@H](CCCNC(=N)N)C(N)=O)C(C)C)NC(=O)[C@H](C(C)C)NC(=O)[C@@H]2CSSC[C@H](NC(=O)[C@H](Cc3ccc(O)cc3)NC1=O)C(=O)N[C@@H](CCCNC(=N)N)C(=O)N[C@@H](CCCNC(=N)N)C(=O)N[C@@H](CCCNC(=N)N)C(=O)N[C@@H](Cc1ccccc1)C(=O)N2 [PG-1]
percent of mycobacterial growth inhibition (M. tuberculosis H37Rv [4]): approximately 94.22%
percent of mycobacterial growth inhibition (M. tuberculosis [5]; 128 µg/mL, ref [3] Fattorini and colleagues): 96.7%
MIC (M. tuberculosis [5]; Plate count assay, ref [3]): 128 µg/mL (≈ 59.4 µM)

CO[C@H]1/C=C/O[C@@]2(C)Oc3c(C)c(O)c4c(O)c(c(/C=N/N5CCN(C)CC5)c(O)c4c3C2=O)NC(=O)/C(C)=C\C=C\[C@H](C)[C@H](O)[C@@H](C)[C@@H](O)[C@@H](C)[C@H](OC(C)=O)[C@@H]1C [RF, rifampicin]
MIC (M. tuberculosis H37Rv [2]): 0.5 µg/mL
MIC, Combined (M. tuberculosis H37Rv [2]; combination RF + D-hLF 1-11): 0.031 25 µg/mL
MIC (M. tuberculosis H37Rv [3]): 0.12 to 0.5 µg/mL
